According to patent publication US20040171622A1, “Cardioprotective delta opioid receptor agonists and methods of using same” (priority 2003, published 2004):
pKi: −log10 of the molar value. Like-named read-outs stand apart in the source and are kept apart here.

Key:
μ opioid receptor = biological target: T1, μ opioid receptor (Rattus norvegicus, UniProt P33535); experiment: Radioligand binding ([3H]DAMGO), rat brain membranes
T1 construct: tissue Pel-Freeze Biological Inc. (Rogers, Ark.); host or cells: rat whole brain membranes

δ opioid receptor = biological target: T2, δ opioid receptor (Rattus norvegicus, UniProt P33533); experiment: Radioligand binding ([3H]Deltorphin II), rat brain membranes
T2 construct: tissue Pel-Freeze Biological Inc. (Rogers, Ark.); host or cells: rat whole brain membranes

κ opioid receptor = biological target: T3, κ opioid receptor (Cavia porcellus, UniProt P41144); experiment: Radioligand binding ([3H]U69593), guinea pig cerebellum membranes
T3 construct: tissue Pel-Freeze Biological Inc. (Rogers, Ark.); host or cells: guinea pig cerebellum membranes

rats [1] = experiment: Tail pinch test for analgesia; format: in vivo, rat; conditions: intravenous
Experimental: (§1) Analgesia was assayed in rats using the tail pinch test. Compound 1 was administered intravenously. Nociceptive response values were obtained for a 1-2 hour period. An artery clamp was placed on the tail (one inch from the tip of the tail) for a short duration until an escape response occurred (i.e. tail-flick or vocalization). The escape response latency was recorded by means of a stopwatch. A cutoff time of 20 sec. was used to prevent unnecessary tissue damage. […] The elapsed time to elicit a pain response was recorded as the tail pinch latency in seconds.
(§2) Further, the compound acts predominately at peripheral delta opioid receptors.

rats [2] = experiment: Observation of seizures in tail pinch test animals; format: in vivo, rat; conditions: intravenous, up to 50 mg/kg
Experimental: as §1, §2

[3] = test system: hearts isolated from Sprague-Dawley rats; experiment: tissue or blood; design: species or system rat; conditions: for % IS/AAR: about 15 min prior to occlusion; for inhibition at 0.0001 µM / inhibition at 0.001 µM / inhibition at 0.01 µM: Rattus norvegicus, after 35 min regional ischemia and 120 min reperfusion; for inhibition at 0.0001 µM: 0.1 nM; for inhibition at 0.001 µM: 1.0 nM
rats [4] = experiment: In vivo LAD coronary artery ligation (35 min) and reperfusion, infarct size, pretreatment 15 min prior; design: species or system rat; conditions: 1 mg/kg i.v.
rats [5] = experiment: In vivo coronary artery occlusion (30 min) and reperfusion, pre-ischemic administration; design: species or system rat
rats [6] = experiment: In vivo coronary artery occlusion and reperfusion, administration immediately prior to reperfusion; design: species or system rat; conditions: 0.3 mg/kg, administered at time of reperfusion
[7] = 0.03 mg/kg i.v. 5 min prior to occlusion
[8] = 0.3 mg/kg i.v. 5 min prior to occlusion

T3 sequence (P41144 whole entry): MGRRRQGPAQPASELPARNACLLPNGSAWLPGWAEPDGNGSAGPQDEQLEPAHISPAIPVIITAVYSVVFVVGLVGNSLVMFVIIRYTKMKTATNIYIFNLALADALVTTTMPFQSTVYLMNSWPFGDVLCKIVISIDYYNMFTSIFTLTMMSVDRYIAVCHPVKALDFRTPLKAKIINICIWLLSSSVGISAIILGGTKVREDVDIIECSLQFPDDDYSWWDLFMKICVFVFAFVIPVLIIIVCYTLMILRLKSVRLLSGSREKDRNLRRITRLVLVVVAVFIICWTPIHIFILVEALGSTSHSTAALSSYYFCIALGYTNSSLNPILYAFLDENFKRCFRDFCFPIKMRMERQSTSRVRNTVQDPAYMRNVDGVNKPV
T1 sequence (P33535 whole entry): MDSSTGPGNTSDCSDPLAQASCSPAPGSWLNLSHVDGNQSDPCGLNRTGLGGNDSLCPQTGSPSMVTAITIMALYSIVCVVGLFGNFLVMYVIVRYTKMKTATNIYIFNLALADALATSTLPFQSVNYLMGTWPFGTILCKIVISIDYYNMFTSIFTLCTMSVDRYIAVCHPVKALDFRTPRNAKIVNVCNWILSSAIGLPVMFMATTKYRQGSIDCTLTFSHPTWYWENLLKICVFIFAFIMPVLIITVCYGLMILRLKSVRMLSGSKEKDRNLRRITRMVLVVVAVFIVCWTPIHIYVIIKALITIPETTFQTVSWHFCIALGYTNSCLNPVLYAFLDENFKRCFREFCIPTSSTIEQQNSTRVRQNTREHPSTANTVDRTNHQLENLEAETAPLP
T2 sequence (P33533 whole entry): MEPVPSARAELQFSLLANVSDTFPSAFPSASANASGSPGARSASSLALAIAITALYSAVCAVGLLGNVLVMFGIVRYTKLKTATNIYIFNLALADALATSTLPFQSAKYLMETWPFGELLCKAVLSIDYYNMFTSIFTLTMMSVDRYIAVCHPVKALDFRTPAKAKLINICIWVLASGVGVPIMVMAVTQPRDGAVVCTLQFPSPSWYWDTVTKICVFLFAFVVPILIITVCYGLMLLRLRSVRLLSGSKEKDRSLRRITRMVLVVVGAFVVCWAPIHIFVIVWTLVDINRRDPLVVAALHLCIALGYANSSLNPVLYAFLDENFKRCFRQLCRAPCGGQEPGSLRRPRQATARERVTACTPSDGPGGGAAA

## CCN(CC)C(=O)c1ccc([C@H](c2cccc(O)c2)N2C[C@@H](C)N(Cc3ccc(C(=O)O)cc3)C[C@@H]2C)cc1 [Compound 1]
μ opioid receptor
  pKi: 5.82
δ opioid receptor
  pKi: 8.72
κ opioid receptor
  pKi: 4.76
Rats [1]; Rattus norvegicus, 20 sec cutoff
  ED50: > 50 mg/kg
Rats [1]
  analgesic activity: no analgesic activity
Rats [2]
  Seizures: NONE
Rats [2]; listed as compound (1)
  Seizures: no seizures were observed
[3]; 1 nM acute pretreatment, one group, FIG. 1
  reduction of infarct size relative to control group: 71%
[3]; 1 nM, isolated rat heart
  % IS/AAR: 18 ± 5%
[3]; 2 nM, isolated rat heart
  % IS/AAR: 9 ± 2%
  protection against damage present in control group (maximal protection): ~90%
[3]; 10 nM, isolated rat heart
  % IS/AAR: 20 ± 6%
[3]; read-out: +dP/dt % inhibition
  inhibition at 0.0001 µM: 26%
  inhibition at 0.001 µM: 7%
[3]; read-out: CF % inhibition
  inhibition at 0.0001 µM: 43%
  inhibition at 0.001 µM: 13%
[3]; read-out: HRXDP % inhibition
  inhibition at 0.0001 µM: 32%
  inhibition at 0.001 µM: 17%
[3]; read-out: −dP/dt % inhibition
  inhibition at 0.0001 µM: 19%
  inhibition at 0.001 µM: 10%
[3]; 10 nM, read-out: +dP/dt % inhibition
  inhibition at 0.01 µM: 21%
[3]; 10 nM, read-out: CF % inhibition
  inhibition at 0.01 µM: 38%
[3]; 10 nM, read-out: HRXDP % inhibition
  inhibition at 0.01 µM: 32%
[3]; 10 nM, read-out: −dP/dt % inhibition
  inhibition at 0.01 µM: 18%
[3]; pretreated hearts, some parameters up to 90%
  heart tissue functioning, % of normal (on the average): at least 75%
Rats [4]; measurement 156 hours after administration (approximately 7 days)
  Reduction of Infarct Size Relative to Non treated Control: 43%
Rats [4]; measurement after acute administration
  Reduction of Infarct Size Relative to Non treated Control: 48%
Rats [5]; 0.01 mg/kg i.v. 5 min prior to occlusion
  Study 1 (% IS/AAR): 56 ± 5%
Rats [5]; [7]
  Study 1 (% IS/AAR): 44 ± 10%
  Study 2 (% IS/AAR): 40 ± 3%
Rats [5]; 0.1 mg/kg i.v. 5 min prior to occlusion
  Study 2 (% IS/AAR): 39 ± 3%
Rats [5]; [8]
  Study 1 (% IS/AAR): 35 ± 11%
  Study 2 (% IS/AAR): 38 ± 3%
Rats [5]; 1.0 mg/kg i.v. 5 min prior to occlusion
  Study 1 (% IS/AAR): 40 ± 8%
Rats [6]
  protection against control ischemic damage: 30-40%
